In patent US6159983A, “Method and composition for treatment of inflammatory bowel disease” (University of Florida, priority 1998, dated 2000):

Legend:
[1] = system: acetic acid-induced colitis; experiment: Acetic acid-induced colitis in the rat (pre-treatment, intrarectal); assay type: in vivo, rat (Sprague-Dawley); conditions: for effectiveness against acetic acid-induced colitis: i.r., 650 μmol/kg, before acetic acid, rat
Text: A typical model of IBD in acetic acid-induced colitis in the rat has been described by Krawisz et al in Amer. J. Proc. Gastro. Col. Rec. Surg., Vol. 31, pages 11-18 (1980); and by Sharon et al in Gastroenterology, Vol. 88, pages 55-63 (1985) and Vol. 86, pages 453-460 (1984). Acetic acid-induced colitis is characterized by the movement of inflammatory cells into the colon, with the number of such cells in the mucosa being measured by the activity of myeloperoxidase, a marker enzyme for these cells. Positive desirable activity is indicated by a reduction in the high levels of myeloperoxidase caused by acetic acid.
Typically, Sprague-Dawley rats from Charles River Laboratories, Portage, Michigan (either sex, weight approximately 250 g) are dosed with test compounds and controls. Thereafter, the rats are given an intracolonic enema of acetic acid which produces a severe inflammatory response in the colon of a healthy rat characterized by rectal bleeding, diarrhea, epithelial erosions and destructions of crypts and gland cells. Twenty-four hours later, the test and control animals are sacrificed and the distal ten centimeters of the colons are removed and opened longitudinally. The tissue lesions contained within the removed, opened section of the colons are scored.
After the systematic evaluation of the impact of various fasting times, use of vehicles, the time interval between pre-treatment and administration of the acetic acid and altering the concentration of acetic acid, the final protocol for the experiments is to fast the rats for 30 hours in hanging wire cages, anesthetize the animals with sodium pentobarbital, administer the test drug 1 cc intrarectally (i.r.) either as a suspension or a solution in water, and to give the acetic acid (7.5% in water) 1 cc i.r. 30 minutes later. The rats are sacrificed 24 hours later and the colons are removed and assessed for damage.

[2] = Iron chelation when given to rats orally or subcutaneously; assay type: in vivo; conditions: orally or subcutaneously (s.c.)
[3] = Preliminary acute toxicity studies in mice; assay type: in vivo
[4] = system: acetic acid-induced colitis; experiment: Reversal studies: compound given 30 minutes after acetic acid; assay type: in vivo; conditions: given 30 minutes after 2.5% acetic acid; rat
[5] = Iron binding in a test tube
ulcerative colitis = conditions: cited from earlier work
[6] = patients treated long-term with 6MP or AZA for IBD; cited from earlier work
Crohn's disease = conditions: multiple controlled trials and a recent meta-analysis; cited from earlier work

## CC(=O)N(O)CCCCCNC(=O)CCC(=O)N(O)CCCCCNC(=O)CCC(=O)N(O)CCCCCN [DFO, reference compound]
[1]
  effectiveness against acetic acid-induced colitis: ineffective

## Cc1ccc(O)c(C2=NC(C(=O)O)CC2)c1 (centres unmarked) [2H-pyrrolecarboxylic acid, 3,4-dihydro-5-(2-hydroxy-5-methylphenyl)-2H-pyrrole-2-carboxylic acid]
[1]; 162.5 μmol/kg (41.5 mg/kg) at 1 cc i.r., rats
  dose response: prevention of severe lesions: severe lesions being prevented in a majority of rats
[1]; 650 μmol/kg vs. 1742 mmol/kg (so in the source), FIGS. 7 and 8
  head-to-head comparison with 5-ASA or its commercially available formulation (Rowasa): far superior even at a much lower dose
[1]; FIGS. 2-8
  damage to the colons compared with control rats: considerably less damage
[1]; expanded experiments
  damage in the colons of the rats, expanded experiments: very little damage
[1]; i.r. at 650 μmol/kg (165 mg/kg N-methylhydroxamate or 166 mg/kg 2H-pyrrolecarboxylic acid), 30 minutes before acetic acid, FIGS. 2-8
  damage in the colons of the test animals: very little damage
[2]
  activity as an iron chelator: inactive
[3]; i.p., at doses up to 1 g/kg
  deaths: no deaths
[3]; preliminary
  acute toxicity: virtually non-toxic
[4]
  lesions compared with the control group: less severe and less active
  state of the lesions (resolution, histology): apparently resolving and with some lamina proprial fibrosis and considerable hyper-plasia of submucosal lymphoid tissue
[5]
  iron binding: binds iron remarkably well

## O=C(O)c1cc(/N=N/c2ccc(S(=O)(=O)Nc3ccccn3)cc2)ccc1O [sulfasalazine]
Ulcerative colitis
  effectiveness for the treatment of acute UC: effective to some degree in some patients

## Nc1ccc(O)c(C(=O)O)c1 [mesalamine, 5-aminosalicylic acid]
Ulcerative colitis
  effectiveness for the treatment of acute UC: effective to some degree in some patients

## Sc1ncnc2nc[nH]c12 [6MP, 6-Mercaptopurine]
[6]
  dose-related leukopenia, patients affected: 2-5%
Crohn's disease
  efficacy in Crohn's disease: support the efficacy

## C[C@]1(C(=O)O)CSC(c2ncccc2O)=N1 [DFT, reference compound]
[1]
  effectiveness against acetic acid-induced colitis: ineffective

## Cn1cnc([N+](=O)[O-])c1Sc1ncnc2nc[nH]c12 [AZA, azathioprine]
[6]
  dose-related leukopenia, patients affected: 2-5%
Ulcerative colitis; several controlled trials
  use in ulcerative colitis: support the use
Crohn's disease
  efficacy in Crohn's disease: support the efficacy
